Reference: patent publication US10106523B2, “Amide compound” (ASTELLAS PHARMA INC., priority 2014, dated 2018)

Legend:
human EP4 receptor = molecular target: T1, human EP4 receptor (Homo sapiens, UniProt P35408); experiment: Human EP4 receptor antagonistic action by measurement of cAMP amount in human Jurkat cells; assay type: cell-based; conditions: PGE2 100 nmol/L, average of three experiments, read-out: IC50 value with respect to the cAMP production action by PGE2 in human Jurkat cells
T1 construct: purchased Chemicon
T1 sequence (P35408 whole entry): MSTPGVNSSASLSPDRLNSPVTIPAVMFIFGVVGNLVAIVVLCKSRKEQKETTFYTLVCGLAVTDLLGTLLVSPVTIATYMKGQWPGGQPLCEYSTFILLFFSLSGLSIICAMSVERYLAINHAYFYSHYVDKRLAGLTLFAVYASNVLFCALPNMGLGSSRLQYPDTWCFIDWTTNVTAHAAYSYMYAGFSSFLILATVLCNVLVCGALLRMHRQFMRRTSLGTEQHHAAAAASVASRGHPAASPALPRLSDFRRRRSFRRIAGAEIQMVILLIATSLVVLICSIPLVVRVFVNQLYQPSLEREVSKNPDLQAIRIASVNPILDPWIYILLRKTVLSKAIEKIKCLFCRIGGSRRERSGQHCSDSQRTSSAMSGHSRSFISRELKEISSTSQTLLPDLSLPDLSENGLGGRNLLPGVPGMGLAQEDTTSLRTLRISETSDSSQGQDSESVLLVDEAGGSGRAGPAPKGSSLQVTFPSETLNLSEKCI
Method: Test Example 3: Evaluation Test of Human EP4 Receptor Antagonistic Action by Measurement of cAMP Amount in Human Jurkat Cells
Jurkat cells (derived from human leukemia T lymphoma) were cultured under the conditions of 37° C. and 5% CO2, using an RPMI1640 culture medium (product No. 11879020, Invitrogen Inc.) with 10% fetal bovine serum (FBS) added. After proliferation up to semiconfluency, indomethacin having a final concentration of […] was added thereto, and the cells were further cultured for 18 hours. These cells were collected in a 15 mL Spitz tube, prepared at 1×10^6 cells/mL using a Cell Banker (Mitsubishi Kagaku Iatron), and stored at −80° C. […]
A cAMP HiRange kit (Cisbio international) was used for cAMP measurement. […] After incubation, the fluorescence intensity of the cryptate at 620 nm and the fluorescence intensity of the d2 at 665 nm were measured using ARVO1420 (PerkinElmer). The cAMPs at 280, 70, 17.5, 4.38, 1.09, 0.27, and 0.068 nmol/L were added to each well and the fluorescence intensity was measured as described above to create a standard curve. […] An average value was calculated from three experiment results.

rat EP4 receptor = rat EP4 receptor (Rattus norvegicus, UniProt P43114); experiment: Evaluation test of rat EP4 receptor affinity ([3H]PGE2 binding, membrane fraction of HEK-293 cells); design: expressed in transfected cells; host or cells: HEK-293 (ATCC CRL-1573), transient; conditions: 0.3 nmol/L [3H]PGE2, rat EP4 cell membrane fraction, room temperature 1 hour; read-out: Ki value with respect to the rat EP4 receptor
rat EP4 receptor, sequence (P43114 whole entry): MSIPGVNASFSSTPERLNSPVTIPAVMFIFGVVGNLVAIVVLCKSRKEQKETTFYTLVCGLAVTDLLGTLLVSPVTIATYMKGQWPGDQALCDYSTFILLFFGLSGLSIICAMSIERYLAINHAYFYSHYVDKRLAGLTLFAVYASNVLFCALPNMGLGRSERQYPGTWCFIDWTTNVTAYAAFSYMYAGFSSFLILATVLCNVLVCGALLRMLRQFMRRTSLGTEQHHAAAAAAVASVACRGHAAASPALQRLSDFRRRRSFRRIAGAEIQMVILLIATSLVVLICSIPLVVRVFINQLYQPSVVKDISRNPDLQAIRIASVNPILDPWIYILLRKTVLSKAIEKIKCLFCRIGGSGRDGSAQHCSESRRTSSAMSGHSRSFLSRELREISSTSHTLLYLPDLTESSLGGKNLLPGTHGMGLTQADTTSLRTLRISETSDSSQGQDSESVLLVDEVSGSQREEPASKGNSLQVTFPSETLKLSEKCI
Method: Test Example 1: Evaluation Test of Rat EP4 Receptor Affinity
Construction of Rat EP4 Receptor Expressing Vector:
A rat EP4 receptor gene (GenBank accession No.: NM_032076.1) was transfected into an expression vector pcDNA3.1-V5-His-TOPO (Invitrogen Inc.).
Transient Expression of Rat EP4 Receptor:
The expression vector of a rat EP4 receptor was transfected into an HEK-293 cell (ATCC No.: CRL-1573). The transfection was carried out according to an appended instruction, using Lipofectoamine (registered trademark) 2000 reagent (Invitrogen Inc.). After the transfection, the cells were cultured in an α-MEM culture medium for 20 to 24 hours.
Preparation of Membrane Fraction:
The culture medium was removed by aspiration, 10 mL of cooled phosphate buffered saline (PBS) was added thereto per 15 cm dish, and the cells were scraped using a cell scraper (Sumitomo Bakelite). […]
[^3H]PGE2 and a cell membrane fraction were diluted with an assay buffer (50 mmol/L HEPES-NaOH, 10 mmol/L MgCl2, pH 7.5), and the test compound and unlabeled PGE2 (Cayman) were diluted with DMSO and the assay buffer. […] The radioactivity was measured using a TopCount (Perkin Elmer). […] The specific binding amount was determined by subtracting the non-specific binding amount from the total binding amount. The Ki value was calculated according to a standard method.

## Cc1nn(Cc2cc3ccccc3cn2)c(C(=O)N[C@@H](C)c2ccc(C(=O)O)cc2)c1Br [Compound A, 4-[(1S)-1-({[4-bromo-1-(isoquinolin-3-ylmethyl)-3-methyl-1H-pyrazol-5-yl]carbonyl}amino)ethyl]benzoic acid]
Human EP4 receptor
  IC50: 0.16 nM
Rat EP4 receptor
  Ki: 0.874 nM
